Source: patent publication US20130005811A1, “ANTIMICROBIAL TREATMENT FOR SEEDS AND SPROUTS” (priority 2010, published 2013)

System: S. typhimurium DT 104
Test: Salmonella on alfalfa seeds with an initial inoculum of 10^4 CFU/g
Assay type: cell-based, Salmonella typhimurium DT104
Method: Five isolates of Escherichia coli O157:H7, including strain 932 (human isolate), E009 (beef isolate), E0018 (cattle isolate), E0122 (cattle isolate), E0139 (deer jerky isolate); and five isolates of Salmonella typhimurium DT104, including strain H2662 (cattle isolate), 11942A (cattle isolate), 13068A (cattle isolate), 152N17-1 (dairy isolate) and H3279 (human isolate) were used. Nalidixic acid-resistant (50 μg/ml) E. coli O157:H7 were used to facilitate enumeration. Each E. coli O157:H7 and Salmonella strain was grown in tryptic soy broth (TSB, Beckon Dickinson, Sparks, Md.) at 37° C. for 18 hr. Approximately equal cell numbers of each of the five strains were combined and used as a 5-strain mixture with cell numbers being adjusted by spectrophotometric (Spectronic Instruments, Rochester, N.Y.) determination as described in Zhao et al., (2009) J. Food Prot. 72: 928-936, incorporated herein by reference in its entirety. Bacterial cell numbers were confirmed by plating 0.1 ml of serial dilutions (1:10) in 0.1% peptone on tryptic soy agar (TSA, Beckon Dickinson) and Sorbitol MacConkey agar (SMA, Oxoid, Hampshire, UK) for E. coli O157:H7, and TSA and XLD agar (Beckon Dickinson) for Salmonella and incubating all plates at 37° C. for 24 hr, after which colonies were counted.
Levulinic acid (0.5%) and 0.05% sodium dodecyl sulfate (SDS) obtained from Sigma-Aldrich (St. Louis, Mo.) were tested in combination at 21±2° C. for their antimicrobial activity to E. coli O157:H7 and S. typhimurium on alfalfa seeds as a wash treatment. Calcium hypochlorite (Arch Chemicals, Smyrna, Ga.) at 20,000 μg/ml (ppm) was used as the positive control, and deionized water was used as the negative control.
Before each trial, 25 ml of sterile tap water and 25 g of alfalfa seeds were added to a WHIRL-PAK® bag (Nasco, Fort Atkinson, Wis.) and pummeled in a stomacher blender at 150 rpm for 1 min. Duplicate 0.1 ml portions of the contents were plated on SMA, XLD, and TSA plates to detect E. coli O157:H7 and Salmonella, and enumerate aerobic bacteria counts according to the protocols described below. Only E. coli O157:H7-negative and Salmonella-negative alfalfa seeds were used. Dry seeds (50 g) were individually placed in a sterilized glass beaker (1 L) and 5 ml of a mixture of E. coli O157:H7 or S. typhimurium DT 104 (high inocula at 10^8-10^9 CFU/ml and low inocula at 10^3-10^4 CFU/ml) was inoculated on the surface of the seeds in each glass beaker under a laminar flow hood. A sterile plastic spoon was used to mix for 2 min the seeds with bacterial suspension. […]
Inactivation of E. coli O157:H7 and Salmonella on Alfalfa Seeds: Inoculated, dried alfalfa seeds (50 g samples) were placed in a 1000 ml glass beaker containing 200 ml of treatment solution and agitated by a magnetic stir bar at 150 ppm at 21° C. for 0, 1, 2, 5, 10, 20, 30, and 60 min. Following treatment, 25 g of seeds was placed in a stomacher bag containing 25 ml 0.1M phosphate buffer, pH 7.2 (PBS) for levulinic acid plus SDS-treated seeds or neutralizing buffer ([…], Ltd., Worthing, England). The suspension was serially (1:10) diluted in 0.1% peptone water and 0.1 ml of each dilution was surface-plated in duplicate onto TSA and Sorbitol MacConkey agar containing 50 μg nalidixic acid/ml (TSA-NA and SMA-NA) for E. coli O157:H7, and on TSA and XLD containing ampicillin (32 μg/ml), tetracycline (16 μg/ml) and streptomycin (64 μg/ml) (TSA+ and XLD+) for S. typhimurium DT 104. All plates were incubated at 37° C. for 48 hr.

[1] = dried at 21° C. for 2 hr, treated for 20 min (10 min in beaker and 10 min in a stomacher bag) at 21° C.

[Ca+2].[O-]Cl.[O-]Cl [20,000 ppm, Ca(OCl)2, pH 11.4, Calcium hypochlorite]
Salmonella on treated seeds by direct plating method (10 min in glass beaker then pummeled 10 min in stomacher bag): negative | S. typhimurium DT 104 count in sample No. 1-10 (seeds) [1]: − | S. typhimurium DT 104 count in sample No. 1-10 (treated supernatant) [1]: − | Salmonella in solutions used for treatment (enrichment culture after use): negative | Salmonella detection in samples treated for 10 min (none pathogen-positive by direct plating): sporadically positive by enrichment culture assay
